Test results: US8530465B2, “1, 2-disubstituted amido-anthraquinone derivatives, preparation method and application thereof” (National Defense Medical Center, priority 2010, dated 2013)

Experiments:
hTERT = assay: Secreted alkaline phosphatase (SEAP) assay, PhTERT-SEAP (H1299); format: cell-based; settings: Homo sapiens, 24 hours; for activity at 1 µM: NCI-H1299, Conc. 1 μM, read-out: Relative SEAP activity (%); for activity at 10 µM: NCI-H1299, Conc. 10 μM; for activity at 10 µM / activity at 100 µM: read-out: Relative SEAP activity (%) (converted); for activity at 100 µM: NCI-H1299, Conc. 100 μM
Protocol: H1299 were grown in RPMI 1640 media supplemented with 10% fetal bovine serum, 100 units/mL penicillin and […] streptomycin in a humidified atmosphere with 5% CO2 at 37° C. Culture media were changed every three days. To establish stable cell lines that the expression of hTERT could be monitored by a reporter system, a about 3.3 kbp DNA fragment ranging from −3338 to +1 bp of the hTERT gene (hTERT promoter, PhTERT) was subcloned upstream to a secreted alkaline phosphatase gene (SEAP) and transfected into H1299 by electroporation. The stable clones were selected using G418. The stable clones derived from H1299 were cultured using conditions that are similar to their parental cells.
Secreted alkaline phosphatase was used as the reporter system to monitor the transcriptional activity of hTERT. Here, about 10^4 cells each were grown in 96-well plates and incubated at 37° C. for 24 hours and changed with fresh media. Varying amounts of drugs were added and cells were incubated for another 24 hours. Culture media were collected and heated at 65° C. for 10 min to inactivate heat-labile phosphatases. An equal amount of SEAP buffer (2 M diethanolamine, 1 mM MgCl2, and 20 mM L-homoarginine) was added to the media and p-nitrophenyl phosphate was added to a final concentration of 12 mM. Absorptions at 405 nm were taken, and the rate of absorption increase is determined (the increasing rate of absorbance at 405 nm was used to represent the activity of SEAP).

[1] = MTT assay, PhTERT-SEAP (H1299); format: cell-based, human; settings: human, H1299 cells carrying the PhTERT-SEAP reporter, PhTERT-SEAP (H1299); for viability at 1 μM: Conc. 1 μM, read-out: Relative MTT viability (%); for viability at 10 μM: Conc. 10 μM; for viability at 10 μM / viability at 100 μM: read-out: Relative MTT viability (%) (converted); for viability at 100 μM: Conc. 100 μM
Protocol: Further, cells were subjected to MTT assay to compare the relative toxicity or effect of each compound on cell proliferation and activity.
The above-described cells are cultured in a 96-well plate, to which was added with 25 μl MTT solution, and cultured in a 37° C. carbon dioxide incubator for 4 hours. Then, 100 μl Lysis buffer is added and incubated in a 37° C. carbon dioxide incubator overnight. An ELISA reader (Bio-Rad Model 450) is used to read optical density (O.D.) at 550 nm.

SMILES | activity at 1 µM (hTERT) | activity at 10 µM (hTERT) | activity at 100 µM (hTERT) | melting point | viability at 1 μM [1] | viability at 10 μM [1] | viability at 100 μM [1]
O=C(CCl)Nc1ccc2c(c1NC(=O)c1ccno1)C(=O)c1ccccc1C2=O [CC-29, 1-[(5-isoxazolecarbonyl)amino]-2-(chloroacetamido)-anthraquinone] | 92.5 ± 0.99% | 4.91% | 1.35% | 212 to 213 °C | 105 ± 7.19% | 3.47% | 0.11%
Cc1cc(C(=O)Nc2c(NC(=O)CCl)ccc3c2C(=O)c2ccccc2C3=O)c(C)o1 [CC-30, 1-[(2,5-dimethyl-3-furoyl)amino]-2-(chloroacetamido)-anthraquinone] | 81.2 ± 1.85% | 2.37% | 0.83% | 207 to 208 °C | 96 ± 2.27% | 2.93% | 
O=C(CCl)Nc1ccc2c(c1NC(=O)COc1ccccc1)C(=O)c1ccccc1C2=O [CC-31, 1-[2-(phenoxy)acetylamino]-2-(chloroacetamido)-anthraquinone] | 83 ± 1.98% | 72.9% | 4.7% | 217 to 218 °C | 101 ± 4.91% | 66.5% | 4.86%
O=C(CCl)Nc1ccc2c(c1NC(=O)CSc1ccccc1)C(=O)c1ccccc1C2=O [CC-32, 1-[2-(phenylsulfanyl)acetylamino]-2-(chloroacetamido)-anthraquinone] | 80 ± 4.39% | 3.89% | -0.05% | 161 to 162 °C | 88.5 ± 2.25% | 5.73% | 
O=C(CN1CCN(c2ccccc2F)CC1)Nc1ccc2c(c1NC(=O)c1ccccc1)C(=O)c1ccccc1C2=O [CC-34, 1-(benzamido)-2-[2-[4-(2-fluorophenyl)piperazino]acetylamino]-anthraquinone] | 98.7 ± 2.55% | 79.6 ± 1.35% | 15.6 ± 1.54% | 228 to 229 °C | 98.6 ± 2.29% | 92.3 ± 2.41% | 27.8 ± 4.82%
Cc1ccc(C(=O)Nc2c(NC(=O)CN(C)C)ccc3c2C(=O)c2ccccc2C3=O)cc1 [CC-35, 1-(4-methylbenzamido)-2-[2-(dimethylamino)acetylamino]-anthraquinone] | 99.5 ± 3.37% | 78.5% | 9.61% | 190 to 191 °C | 107 ± 2.85% | 88.4% | 
Cc1ccc(C(=O)Nc2c(NC(=O)CN(C)CC3OCCO3)ccc3c2C(=O)c2ccccc2C3=O)cc1 [CC-36, 1-(4-methylbenzamido)-2-[2-[(1,3-dioxolan-2-ylmethyl)(methyl)amino]acetylamino]-anthraquinone] | 101 ± 3.01% | 76.5% | 10.2% | 156 to 157 °C | 104 ± 2.12% | 88.6% | 3.78%
Cc1ccc(C(=O)Nc2c(NC(=O)CN(C)CCc3ccccn3)ccc3c2C(=O)c2ccccc2C3=O)cc1 [CC-37, 4-methyl-N-(2-(2-(methyl(2-(pyridin-2-yl)ethyl)amino)acetamido)-9,10-dioxo-9,10-dihydroanthracen-1-yl)benzamide] | 90.6 ± 1.48% | 11.9% | 1.47% | 166 to 167 °C | 94.9 ± 6.49% | 46.2% | 22%
Cc1ccc(C(=O)Nc2c(NC(=O)CN3CCCCC3)ccc3c2C(=O)c2ccccc2C3=O)cc1 [CC-39, N-(9,10-dioxo-2-(2-(piperidin-1-yl)acetamido)-9,10-dihydroanthracen-1-yl)-4-methylbenzamide] | 85.4 ± 7.56% | 70.1% | 8.3% | 213 to 214 °C | 86.3 ± 6.52% | 70.2% | 10.8%
Cc1ccc(C(=O)Nc2c(NC(=O)CN3CCC4(CC3)OCCO4)ccc3c2C(=O)c2ccccc2C3=O)cc1 [CC-40, 1-(4-methylbenzamido)-2-[2-(1,4-dioxa-8-azaspiro[4.5]dec-8-yl)acetylamino]-anthraquinone] | 78.9 ± 3.67% | 51.6% | 6.67% | 197 to 198 °C | 74.3 ± 6.15% | 55.5% | 16.8%
Cc1ccc(C(=O)Nc2c(NC(=O)CN3CCOCC3)ccc3c2C(=O)c2ccccc2C3=O)cc1 [CC-41, 1-(4-methylbenzamido)-2-[(2-morpholinoacetyl)amino]-anthraquinone] | 98.37 ± 0.9% | 54.2% | 3.75% | 225 to 226 °C | 81.5 ± 6.24% | 56.7% | 15.5%
Cc1ccc(C(=O)Nc2c(NC(=O)CN3CCSCC3)ccc3c2C(=O)c2ccccc2C3=O)cc1 [CC-42, 1-(4-methylbenzamido)-2-[2-(1,4-thiazinan-4-yl)acetylamino]-anthraquinone] | 88 ± 1.2% | 72.6% | 12.2% | 210 to 211 °C | 85.8 ± 7.69% | 70% | 20%
Cc1ccc(C(=O)Nc2c(NC(=O)CN3CCN(c4ccccc4)CC3)ccc3c2C(=O)c2ccccc2C3=O)cc1 [CC-45, 1-(4-methylbenzamido)-2-[2-(4-phenylpiperazino)acetylamino]-anthraquinone] | 93.2 ± 4.68% | 88.2% | 15.9% | 270 to 271 °C | 80.8 ± 6.98% | 77% | 23.2%
Cc1ccc(C(=O)Nc2c(NC(=O)CN3CCN(c4ccccc4F)CC3)ccc3c2C(=O)c2ccccc2C3=O)cc1 [CC-46, 1-(4-methylbenzamido)-2-[2-[4-(2-fluorophenyl)piperazino]acetylamino]-anthraquinone] | 85 ± 10.8% | 76.2% | 20.1% | 228 to 229 °C | 79.8 ± 9.65% | 68.7% | 40.8%
Cc1ccc(C(=O)Nc2c(NC(=O)CN3CCN(c4ccccc4C#N)CC3)ccc3c2C(=O)c2ccccc2C3=O)cc1 [CC-47, 1-(4-methylbenzamido)-2-[2-[4-(2-cyanophenyl)piperazino]acetylamino]-anthraquinone] | 81 ± 9.56% | 74.2% | 20.8% | 238 to 239 °C | 72 ± 11.1% | 60.1% | 48.2%
COc1ccccc1N1CCN(CC(=O)Nc2ccc3c(c2NC(=O)c2ccc(C)cc2)C(=O)c2ccccc2C3=O)CC1 [CC-48, 1-(4-methylbenzamido)-2-[2-[4-(2-methoxyphenyl)piperazino]acetylamino]-anthraquinone] | 83.3 ± 2.81% | 68.3% | 12.2% | 215 to 216 °C | 76.4 ± 3.95% | 78.3% | 22.7%
Cc1ccc(C(=O)Nc2c(NC(=O)CN3CCN(c4ccccn4)CC3)ccc3c2C(=O)c2ccccc2C3=O)cc1 [CC-49, 1-(4-methylbenzamido)-2-[2-[4-(2-pyridyl)piperazino]acetylamino]-anthraquinone] | 97.1 ± 7.43% | 64.3% | 9.96% | 258 to 259 °C | 105 ± 3.65% | 100% | 6.46%
Cc1ccc(C(=O)Nc2c(NC(=O)CN3CCN(c4ncccn4)CC3)ccc3c2C(=O)c2ccccc2C3=O)cc1 [CC-50, 1-(4-methylbenzamido)-2-[2-[4-(2-pyrimidinyl)piperazino]acetylamino]-anthraquinone] | 87.1 ± 7.97% | 79.5% | 20% | 267 to 268 °C | 102 ± 5.76% | 91.5% | 59%
